Data reported in patent publication US20110142866A1, “PEPTIDE ANALOGUES AND CONJUGATES THEREOF” (Eldrug S.A., priority 2007, published 2011).
“Also recorded” adds a separate entry of the source.

Tests used:
spleen cells = experiment: T cell proliferation assay ([3H]-thymidine uptake); type: in vivo, SJL/J mice; set-up: key to Proliferation / Proliferation cross reaction: −: negative; +/−: very weak; +: weak; ++: moderate; +++: strong; settings: for Proliferation cross reaction: Table 3, complete Freund's adjuvant; for Proliferation: Table 2, peptide analogues conjugated to reduced mannan-KLH; for proliferation of MBP83-99 specific T cells to recall analogue (in words): mice immunized with agonist MBP83-99 in CFA
Protocol: Spleen cells from immunized SJL/J mice were isolated 14 days after immunization and assessed by T cell proliferation assay. 1×10^5 spleen cells in 100 μl culture media were seeded into 96 U-bottom plates and incubated for 1-6 days at 37° C. in the presence of recall peptide (10 μg/ml), ConA (positive control) or no peptide (negative control). Proliferation was assessed by adding 1 μCi of [^3H]-thymidine per well to one plate per time point (days 1-6). Cells were incubated for a further 6 h before harvesting onto glass fiber filters. [^3H] uptake was measured using a β-scintillation counter (Top Count Gamma Counter, Packard, USA).
Proliferation assays were used to detect the level of antigen specific T cells by measuring the [3H]thymidine uptake of T cells proliferating in the presence of peptides on days 1-6. Spleen cells from mice immunized with linear agonist MBP83-99 peptide were isolated 28 days after immunization and assessed by T cell proliferation assay. T cells proliferated to MBP83-99 peptide, reaching a peak by day 5 of up to 25 000 cpm (FIG. 9D). In addition, the MBP83-99 specific T cells cross-reacted with linear [A^91]MBP83-99 and mutant cyclo(83-99)[A^91]MBP83-99 peptide analogues (FIG. 9D). The cyclo(83-99)[A^91]MBP83-99 peptide proliferated similarly to linear [A^91]MBP83-99 peptide, reaching a peak on day 5 (FIG. 9D). ConA (internal control) yielded proliferation of more than 75 000 cpm peaked on day 2 and was excluded from the figures, and no peptide (cells alone) was used as background negative control.

[1] = tested on: IL-10 secretion by T cells; experiment: IL-10 ELISpot of spleen cells from immunized mice; type: in vivo, SJL/J mice; set-up: key to IL-10: −: negative; +/−: very weak; +: weak; ++: moderate; +++: strong; settings: for IL-10: Table 2, peptide analogues conjugated to reduced mannan-KLH; for IL-10 production by T cells (in words): peptide conjugated to reduced mannan, two injections
Protocol: Female 6-8 week old SJL/J mice used in all experiments, were purchased from Walter and Eliza Hall Institute (VIC Australia) and housed at the Biological Research Laboratory at Burnet Institute at Austin, Heidelberg, Australia. SJL/J mice were immunized twice on days 0, 14 intradermally (base of tail) with 50 μg MBP83-99 peptide analogue-KLH-reduced mannan.
ELISpot analyses specific T cell responses to antigens by detecting the secretion of specific cytokines. Spleen cells from immunized SJL/J mice were isolated 14 days after immunization and assessed by ELISpot for IFN-γ, IL-4 or IL-10 secretion by T cells. IFN-γ ELISpot assay was performed on MultiScreen-IP Filter Plate (MAIP S4510) with hydrophobic PVDF filters (Millipore, UK) while IL-4 and IL-10 ELISpot was performed on MultiScreen-HA Filter Plate (MAHA S4510) with mixed cellulose esters filters (Millipore, UK). MAIP S4510 plates were pre-wet with 50 μl of 70% ethanol, washed 5 times with 200 μl sterile PBS and coated with 70 μl of 5 μg/ml anti-IFN-γ capture antibody, AN18 (Mabtech, Australia) in PBS and left to incubate at 4° C. O/N. While 70 μl of 5 μg/ml anti-IL-4 and anti-IL-10 capture antibody (Mabtech, Australia) was added directly to MAHA S4510 plates and incubated at 4° C. O/N without 70% ethanol treatment. Following 5 washes with PBS, plates were blocked by adding 200 μl of culture media (supplemented with 2.5% FCS) and incubated for 2 hours at 37° C. The blocking media was discarded and 10 μg/ml recall peptides (MBP83-99 peptide analogues not conjugated to KLH-reduced mannan) were added into each defined well. Con A (1.0 μg/ml; IL-4 and IFN-γ) or LPS (1.0 μg/ml; IL-10) were used as an internal positive controls and no peptide was used as negative control. Triplicate wells were set up for each condition. 5×10^5 spleen cells in 100 μl culture media were seeded into each well and incubated for 18 hours for IFN-γ, 24 hours for IL-4 and 48 hours for IL-10 at 37° C. Plates were washed 5 times PBS/0.05% Tween 20 and 5 times PBS and incubated for 2 hours at RT with anti-murine IFN-γ, IL-4 or IL-10 monoclonal antibody-biotin. Plates were washed and streptavidin-ALP was added at 1.0 μg/ml and incubated for 2.0 hours at RT. Spots of activity were detected using a colorimetric AP kit (Biorad, Hercules, Calif. USA) and counted using an AID ELISpot plate reader (Autoimmun Diagnostika GmbH, Germany). Data are presented as mean spot forming units (sfu) per 0.5×10^6 cells +/−standard error of the mean (SEM).

Substance | Proliferation cross reaction (spleen cells) | IL-10 [1] | IL-10 production by T cells (in words) [1] | Proliferation (spleen cells) | proliferation of MBP83-99 specific T cells to recall analogue (in words) (spleen cells) | T cell proliferation, peak (spleen cells; mice immunized with linear MBP83-99 (CFA), spleen cells 28 days, recall peptide, peak by day 5) | T cell proliferation to recall peptide (in words) (spleen cells; immunization with reduced mannan-KLH-peptide)
E N P V V H F F E N I V T P R T P (ENPVVHFFENIVTPRTP) [[E^91]MBP83-99] | ++ | – | – | – | – | – | –
E N P V V H F F Y N I V T P R T P (ENPVVHFFYNIVTPRTP) [[Y^91]MBP83-99] | +/− | ++ | moderate levels | +/− | weakly proliferated | – | –
E N P V V H F F R N I V T A R T P (ENPVVHFFRNIVTARTP) [[R^91, A^96]MBP83-99] | +/− | – | – | – | weakly proliferated | – | –
cyclo(83-99)E N P V V H F F A N I V T P R T P (ENPVVHFFANIVTPRTP; cyclised or stapled) [cyclo(83-99)[A^91]MBP83-99] | ++ | – | – | – | cross-reacted | – | –
E N P V V H F F K N I V T P R T P (ENPVVHFFKNIVTPRTP) [MBP83-99, reference compound] | – | – | – | – | – | up to 25 000 cpm | –
E N P V V H F F F N I V T P R T P (ENPVVHFFFNIVTPRTP) [[F^91]MBP83-99] | ++ | ++ | moderate levels; also recorded: induced | +++ | – | – | strong
E N P V V H F F A N I V T P R T P (ENPVVHFFANIVTPRTP) [[A^91]MBP83-99] | ++ | – | – | – | cross-reacted | – | –
